Test [1] concerns the target T1, UHRF1_SRA binding to hemimethylated DNA (Homo sapiens, UniProt Q96T88).
T1 construct: made in house; host or cells: E. coli BL-21 Gold
T1 sequence (Q96T88 419-582 limits assumed): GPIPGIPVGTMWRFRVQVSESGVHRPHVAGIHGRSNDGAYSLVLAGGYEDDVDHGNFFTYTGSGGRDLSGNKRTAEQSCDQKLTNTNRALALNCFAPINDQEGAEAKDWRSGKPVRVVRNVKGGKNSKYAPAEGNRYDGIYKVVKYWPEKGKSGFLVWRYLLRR
Put plainly: LOPAC primary screen with the TR-FRET assay. As to conditions: 20 μM; hit = Z-score < −4.08, Bonferroni adjusted p-value < 0.05. How it is done:
The above TR-FRET assay was employed to screen the Library of Pharmacologically Active Compounds (LOPAC) (Sigma-Aldrich) using optimized conditions. 200 uM stock solutions of compounds dissolved in dimethyl sulfoxide (DMSO) were added to a final concentration of 20 μM across four 384-well plates containing 20 μL of TR-FRET buffer with 125 nM UHRF1_SRA protein, 100 nM double stranded FAM-labeled hemimethylated oligos, and 5 nM terbium labeled anti-HIS antibody. Controls on each plate include: 1) a DMSO-only vehicle control, 2) 5μM of unlabeled, methylated oligonucleotide as a positive inhibition control, 3) unmethylated, FAM-labeled oligonucleotide as a negative control, and 4) no UHRF1_SRA protein negative control. Each plate was incubated at 4° C for one hour and read using a Safire^2 (Tecan Group, Männedorf, Switzerland) with excitation at 332 nm and emissions read at 485 nm and 515 nm. A Z score of the TR-FRET signal (ratio of 515 nm signal to the 485 nm signal) was calculated for each compound using the following formula: […]
where x is the TR-FRET signal for each compound, x¯ is the median TR-FRET signal of all compounds on the plate, and σ is the standard deviation of all compound TR-FRET signals across the plate. Hits were defined as those compounds with Z-score < −4.08 corresponding to a Bonferroni adjusted p-value of less than 0.05.

Test [2] relates to DU-145 cells. The experiment in a line: Clonogenic survival assay. As to conditions: 10 days; for Clonogenic survival, drug alone: decitabine 50 nM, mitoxantrone 2.5 nM, doxorubicin 5 nM; for Clonogenic survival, in combination with decitabine: mitoxantrone 2.5 nM or doxorubicin 5 nM with 50 nM decitabine.
In test [3] the test system is DU-145 cells. The experiment in a line: Growth curve assay (IncuCyte). Type of test: cell-based. The settings on record: mitoxantrone 1.25 nM or doxorubicin 5 nM or 10 nM with 50 nM decitabine. Here is the method:
The next day, cells were treated with a single dose of DMSO (vehicle control), decitabine alone (50 nM), mitoxantrone alone (1.25 nM), doxorubicin alone (5 nM or 10 nM), or decitabine in combination with mitoxantrone (1.25 nM) or doxorubicin (5 nM or 10 nM). Cell growth was measured using IncuCyte™ technology (Essen Bioscience, Ann Arbor, MI, USA) by imaging 16 fields per well at 6 hour intervals. The cell surface area and percent confluence were calculated using IncuCyte software, and growth curves were constructed in R using the ggplot2 package.

Test [4] has as its target T1, UHRF1_SRA binding to hemimethylated DNA. Put plainly: TR-FRET assay, dose-response inhibition of UHRF1_SRA binding to FAM-labeled hemimethylated DNA. The settings on record: for Dose-response validation of screen hits (result in words): dilution series 50 μM to 0.64 nM, quadruplicate. Here is the method: TR-FRET assays were performed in an optimized TR-FRET buffer (4% glycerol, 1 mM MgCl2, 0.5 mM EDTA, 0.5 mM DTT, 125 mM NaCl, 10 mM Tris HCl, and 0.2% Tween-20) in non-binding, flat-bottom 384-well plates (Corning). UHRF1_SRA protein was added to a final concentration of 125 nM and terbium-labeled antibody was added at 5 nM (Life Technologies) in a final reaction volume of 20 μL. For initial binding experiments examining the affinity of UHRF1_SRA to DNA, FAM-labeled hemimethylated or unmethylated double stranded oligonucleotides were added in a dilution series, and the reaction mixture was incubated at 4°C with shaking for 1 hour. TR-FRET measurements were made on a SpectraMax M5 (Molecular Devices, Sunnyvale, CA, USA), using an excitation wavelength of 332 nm and emissions read at 485 nm and 515 nm with a 50 μsec delay and 400 μsec integration. The ratio of the 515 nm emission (arising from FRET) to the 485 nm emission provides a normalized TR-FRET signal that represents the extent of binding. For inhibitor curves, FAM-labeled hemimethylated oligonucleotide was added to a final concentration of 100 nM, and unlabeled oligonucleotide was added in a dilution series. A Z’ factor was calculated for 32 replicates of UHRF1_SRA protein binding FAM-labeled hemimethylated DNA with or without the addition of an excess (5 μM) of unlabeled hemimethylated inhibitor (“cold” perfect competitive inhibitor positive control for inhibition):
Each hit compound was tested using the TR-FRET assay above in quadruplicate in a dilution series (50 μM to 0.64 nM). Curve fitting was performed using the open source software R version 2.15.2 with the ggplot2 package.

Test [5] relates to PC-3 prostate cancer cell line. Put plainly: Cellular growth/proliferation assay. Type of test: cell-based. As to conditions: mitoxantrone 2.5 nM or doxorubicin 5 nM with decitabine 50 nM. Here is the method:
(§1) www.oncotarget.com Oncotarget, Supplementary Materials […]
(§2) derivative chemotherapeutic drugs
(§3) Supplementary Figure 1: Cellular growth/proliferation assays of C42B, PC-3 and LNCaP prostate cancer cell lines treated with mitoxantrone (2.5 nM) or doxorubicin (5 nM) in combination with decitabine (50 nM) or vehicle control (DMSO), decitabine alone, or DMSO alone.
(§4) (1 picture or pasted object on this page, not shown here)

Test [6] has as its system LNCaP prostate cancer cell line. Put plainly: Cellular growth/proliferation assay. The settings on record: mitoxantrone 2.5 nM or doxorubicin 5 nM with decitabine 50 nM. Type of test: cell-based. Here is the method:
as §1, §2, §3, §4

The subject of test [7] is C42B prostate cancer cell line. The experiment in a line: Cellular growth/proliferation assay. Type of test: cell-based. As to conditions: mitoxantrone 2.5 nM or doxorubicin 5 nM with decitabine 50 nM. How it is done:
as §1, §2, §3, §4

[8] abbreviates: 125 nM UHRF1_SRA, 100 nM FAM-labeled hemimethylated oligo, read-out: IC50 of inhibition of UHRF1_SRA binding to labeled hemimethylated DNA.

By IC50 is commonly meant the midpoint of a concentration-inhibition curve.

Like-named read-outs stand apart in the source and are kept apart here.

For the compound `O=C1c2c(O)ccc(O)c2C(=O)c2c(NCCNCCO)ccc(NCCNCCO)c21` [mitoxantrone], the “Inhibition of UHRF1_SRA binding to hemimethylated DNA in pilot screen” value (shortened to “Inhibition of UHRF1_SRA binding”) in test [1] is “significantly inhibited”. Also, the “Clonogenic survival, drug alone” value in the test on DU-145 cells [2] is on record as “some reduction in clonogenic survival”. The “Clonogenic survival, in combination with decitabine” value in the test with DU-145 cells [2] is “significantly enhanced reduction in clonogenic survival”. Besides, in the test on DU-145 cells [3], the “Growth curve analysis, in combination with decitabine” value is listed as “synergy”. Moreover, the IC50 in test [4] (setting [8]) stood at 134 nM. Moreover, the “Dose-response validation of screen hits (result in words)” value (“Dose-response validation of screen hits” below) in test [4] was “inhibited binding with a sigmoidal dose response”. The “Growth/proliferation, combination with decitabine” value in test [5], in test [6] and in test [7] was “enhanced inhibition of” each time.

Consider `CN(N=O)c1ccc(O)c(O)c1` [methyl-3,4-dephostatin], for which, in test [1], the “Inhibition of UHRF1_SRA binding” value is listed as “significantly inhibited”. In addition, the “Dose-response validation of screen hits” value in test [4] is reported as “failed to show any appreciable inhibition”.

For `O=C(Nc1cccc(C(=O)Nc2ccc(S(=O)(=O)O)c3cc(S(=O)(=O)O)cc(S(=O)(=O)O)c23)c1)Nc1cccc(C(=O)Nc2ccc(S(=O)(=O)O)c3cc(S(=O)(=O)O)cc(S(=O)(=O)O)c23)c1` [NF023], the “Inhibition of UHRF1_SRA binding” value in test [1] is reported as “significantly inhibited”. The IC50 in test [4] (setting [8]) came to 840 nM. In test [4], the “Dose-response validation of screen hits” value was “inhibited binding with a sigmoidal dose response”.

Turning to `Nc1c(S(=O)(=O)O)cc(Nc2ccc(Nc3nc(Cl)nc(Nc4cccc(S(=O)(=O)O)c4)n3)c(S(=O)(=O)O)c2)c2c1C(=O)c1ccccc1C2=O` [Reactive Blue 2], in test [1], the “Inhibition of UHRF1_SRA binding” value is given as “significantly inhibited”.

Take `O=C(O)C1=CC(=C(c2ccc(O)c(C(=O)O)c2)c2ccc(O)c(C(=O)O)c2)C=CC1=O` [aurintricarboxylic acid]: the “Inhibition of UHRF1_SRA binding” value in test [1] was “significantly inhibited”. Moreover, the IC50 in test [4] (setting [8]) was found to be 21 nM. Besides, the “Dose-response validation of screen hits” value in test [4] was “inhibited binding with a sigmoidal dose response”.

In the case of `NCCNc1ccc(NCCN)c2c1C(=O)c1ccncc1C2=O` [Pixantrone, pixantrone], in test [4] (setting [8]), the IC50 worked out at 557 nM.

`N#CC(C#N)=C(N)/C(C#N)=C/c1cc(O)c(O)c(O)c1` [tyrphostin 51]: in test [1], the “Inhibition of UHRF1_SRA binding” value is listed as “significantly inhibited”. Also, the “Dose-response validation of screen hits” value in test [4] was “failed to show any appreciable inhibition”.

Consider `NC(Cc1cc(O)c(O)cc1O)C(=O)O` (racemic) [6-OH-DL-DOPA], for which the “Inhibition of UHRF1_SRA binding” value in test [1] was “significantly inhibited”. Further, the “Dose-response validation of screen hits” value in test [4] is “failed to show any appreciable inhibition”.

Consider `COc1cccc2c1C(=O)c1c(O)c3c(c(O)c1C2=O)C[C@@](O)(C(C)=O)C[C@@H]3O[C@H]1C[C@H](N)[C@H](O)[C@H](C)O1` [Daunorubicin, daunorubicin], for which the 50% inhibitory concentration (IC50) in test [4] (setting [8]) stood at 313 nM.

For the compound `CC(=O)[C@]1(O)Cc2c(O)c3c(c(O)c2[C@@H](O[C@H]2C[C@H](N)[C@H](O)[C@H](C)O2)C1)C(=O)c1ccccc1C3=O` [idarubicin], the “Inhibition of UHRF1_SRA binding” value in test [1] is “significantly inhibited”. For the same compound, in test [4] (setting [8]), the IC50 was 593 nM. For the same compound, the “Dose-response validation of screen hits” value in test [4] is “inhibited binding with a sigmoidal dose response”.

Take `N=C1Sc2ccccc2C2=NCCCN12` [PD404,182]: in test [1], the “Inhibition of UHRF1_SRA binding” value is listed as “significantly inhibited”. Further, the “Dose-response validation of screen hits” value in test [4] was “failed to show any appreciable inhibition”.

For the compound `Cc1ccc(C(=O)Nc2ccc(S(=O)(=O)O)c3cc(S(=O)(=O)O)cc(S(=O)(=O)O)c23)cc1NC(=O)c1cccc(NC(=O)Nc2cccc(C(=O)Nc3cc(C(=O)Nc4ccc(S(=O)(=O)O)c5cc(S(=O)(=O)O)cc(S(=O)(=O)O)c45)ccc3C)c2)c1` [Suramin], in test [1], the “Inhibition of UHRF1_SRA binding” value is “significantly inhibited”. Also, the IC50 in test [4] (setting [8]) stood at 2250 nM. Moreover, in test [4], the “Dose-response validation of screen hits” value is reported as “inhibited binding with a sigmoidal dose response”.

On to `CN(N=O)c1cc(O)ccc1O` [dephostatin], for which the “Inhibition of UHRF1_SRA binding” value in test [1] is “significantly inhibited”. For the same compound, in test [4], the “Dose-response validation of screen hits” value was “failed to show any appreciable inhibition”.

Turning to `S=C=Nc1ccc2oc(C3=NCCN3)cc2c1` [BU99006], the “Inhibition of UHRF1_SRA binding” value in test [1] is listed as “significantly inhibited”. Also, in test [4], the “Dose-response validation of screen hits” value was “failed to show any appreciable inhibition”.

Consider `Cc1nc(N=Nc2cc(S(=O)(=O)O)c3cc([N+](=O)[O-])cc(S(=O)(=O)O)c3c2)c(COP(=O)(O)O)c(C=O)c1O` [PPNDS], for which the “Inhibition of UHRF1_SRA binding” value in test [1] is reported as “significantly inhibited”. Moreover, the IC50 in test [4] (setting [8]) was 770 nM. In test [4], the “Dose-response validation of screen hits” value is listed as “inhibited binding with a sigmoidal dose response”.

For `Nc1ncn([C@H]2C[C@H](O)[C@@H](CO)O2)c(=O)n1` [decitabine], in the test on DU-145 cells [2], the “Clonogenic survival, drug alone” value is “some reduction in clonogenic survival”.

In the case of `COc1cccc2c1C(=O)c1c(O)c3c(c(O)c1C2=O)C[C@@](O)(C(=O)CO)C[C@@H]3O[C@H]1C[C@H](N)[C@H](O)[C@H](C)O1` [doxorubicin], the “Clonogenic survival, drug alone” value in the test on DU-145 cells [2] is on record as “some reduction in clonogenic survival”. Further, in the test with DU-145 cells [2], the “Clonogenic survival, in combination with decitabine” value was “significantly enhanced reduction in clonogenic survival”. In addition, in the test on DU-145 cells [3], the “Growth curve analysis, in combination with decitabine” value is “synergy”. Moreover, the IC50 in test [4] worked out at 131 nM. The “Growth/proliferation, combination with decitabine” value was “showed enhanced” in test [5], “did not show enhanced growth inhibition” in test [6] and “showed enhanced” in test [7].

Turning to `O=C(Nc1cc(C(=O)Nc2ccc(S(=O)(=O)O)cc2S(=O)(=O)O)cc(C(=O)Nc2ccc(S(=O)(=O)O)cc2S(=O)(=O)O)c1)Nc1cc(C(=O)Nc2ccc(S(=O)(=O)O)cc2S(=O)(=O)O)cc(C(=O)Nc2ccc(S(=O)(=O)O)cc2S(=O)(=O)O)c1` [NF449], in test [1], the “Inhibition of UHRF1_SRA binding” value was “significantly inhibited”. The 50% inhibitory concentration (IC50) in test [4] (setting [8]) was determined as 393 nM. Further, the “Dose-response validation of screen hits” value in test [4] was “inhibited binding with a sigmoidal dose response”.

The record behind these values is article PMC6508961, “A high-throughput screen of pharmacologically active compounds for inhibitors of UHRF1 reveals epigenetic activity of anthracycline derivative chemotherapeutic drugs” (Oncotarget, 2019).
